Assay results reported in patent publication US5486595A, “Tumor necrosis factor inhibitors” (Centecor, Inc., priority 1994, dated 1996).
Where a SMILES comes first, the peptide text is derived from it.

What follows are compounds tested against T1, human TNFα (Homo sapiens, UniProt P01375) (assay: p55 Receptor/IgG Fusion Protein Binding Assay (inhibition of TNFα capture by p55-Ig coated plate)). Details: peptide 1 mM; TNFα 25 ng/ml.
T1 construct: purchased Biosource, Camarillo, Calif
Method: This assay was designed to identify peptides which bind to human TNFα and thereby prevent the capture of the TNFα by a microtiter plate coated with p55-Ig fusion protein. A constant concentration of human TNFα is preincubated with the test peptide and then incubated on the p55-Ig coated microtiter wells. Bound TNFα is detected using a specific antisera and an alkaline phosphatase-conjugated probe.
A 96-well, U-bottom polyvinylchloride microtiter plate was coated with 50 μl/well of p55-Ig fusion protein at 5 μg/ml in 0.01M sodium phosphate, 0.15M sodium chloride (PBS) by incubation overnight at 4° C. or 2 hours at 37° C. The fusion protein, which consists of a p55 TNF receptor protein portion and an IgG portion, can be produced as disclosed in U.S. application Ser. No. 08/010,406 filed Jan. 29, 1993 which is incorporated herein by reference. The plate was washed three times with 0.05% Tween-20 in PBS, then blocked, by adding 150 μl/well of assay buffer (10 mM N-2-hydroxyethylpiperazine-N'-[…] (HEPES) pH 7.2, containing 0.1% porcine gelatin, 0.1% Tween-80, and 0.01% sodium azide) and continuing incubation for 1 hour at 37° C. or at 4° C. for 1-7 days.
Lyophilized peptides to be tested were weighed in tared 12×75 mm polystyrene tubes and reconstituted to a concentration of 1.2 mM with assay buffer. Each suspension was sonicated in a water bath for 1-5 minutes and vortexed 15-30 seconds to disperse large particles. Serial dilutions of each peptide suspension were prepared using assay buffer in a 96-well polystyrene microtiter plate. Additional wells received Fab fragment of the mouse/human monoclonal anti-human TNFα antibody cA2 (positive control) or assay buffer (negative control). […] The polystyrene dilution plate was then sealed and incubated 1 hour at room temperature on an orbital mixer set at moderate speed.
Following the sample preincubation, blocker was discarded from the p55-Ig coated plate and blotted dry. Aliquots (50 μl) of each peptide or control were transferred into duplicate wells on the p55-Ig coated plate which was then sealed and incubated i hour at 37° C. Duplicate wells containing only assay buffer were included as a plate blank. After incubation the p55-Ig plate was washed three times with 0.05% Tween-20 in PBS.
To detect TNFα captured by the p55-Ig plate, all wells were incubated in succession with polyclonal rabbit anti-human TNFα (Genzyme, Boston, Mass.; 1:500 in assay buffer, 50 μl/well), biotinylated goat anti-rabbit Ig (H&L) (Vector Laboratories, Burlingame, Calif.; 1 μg/ml in assay buffer, 50 μl/well) and streptavidin-alkaline phosphatase conjugate (Pierce, Rockford, Ill.; 1 μg/ml in assay buffer, 50 μl/well). All incubations were for 1 hour at 37° C. and after each incubation the plate was washed three times with 0.05% Tween-20 in PBS. Fifty microliters of alkaline phosphatase substrate solution (alkaline buffer (Sigma, St. Louis, Mo.) diluted 1:500 in deionized water plus one 5 mg tablet of p-nitrophenyl phosphate (Sigma, St. Louis, Mo.) per 5 ml of diluted buffer) was added to all wells and incubation continued for 20 minutes at room temperature. Color development was stopped by adding to all wells 50 μl of 3N sodium hydroxide. The optical density (OD) at 405 nm was measured on a microtiter plate reader (Molecular Devices Vmax plate reader), with the plate blank wells subtracted as background. The activity of each peptide was then expressed as the percent inhibition of TNFα capture by the p55-Ig plate, relative to the amount of TNFα captured in wells containing only assay buffer (negative control), as follows: % inhibition=100-((mean OD peptide/mean OD negative control)×100).
The inhibition of binding of TNFα to p55TNFr-IgG chimeric construct was performed as described above using several embodiments of the invention. The peptides were tested at a concentration of 1 mM.

T1 sequence (P01375 77-233 limits assumed): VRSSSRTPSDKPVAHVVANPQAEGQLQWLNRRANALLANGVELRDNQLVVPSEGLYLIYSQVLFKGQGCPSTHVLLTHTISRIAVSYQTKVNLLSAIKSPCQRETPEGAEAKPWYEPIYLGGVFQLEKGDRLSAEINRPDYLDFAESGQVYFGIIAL

Compound	inhibition of binding of TNFα to p55TNFr-IgG chimeric construct [%]
SEQ ID NO:52: peptide of the invention that inhibits TNFα; sequence not printed (ASRDAVATSTSPTRS)	63
SEQ ID NO:40: peptide of the invention that inhibits TNFα; sequence not printed (WVPEALSAGSRASSD)	72

Same assay, conditions: peptide 1 mM; TNFα 25 ng/ml; read-out: inhibition of binding of TNFα to p55TNFr-IgG chimeric construct

Compound	inhibition at 1000 µM [%]
CC[C@H](C)[C@H](NC(=O)[C@H](CCC(=O)O)NC(=O)[C@@H](NC(=O)[C@H](CCC(N)=O)NC(=O)CNC(=O)[C@H](CCSC)NC(=O)[C@H](CCC(=O)O)NC(=O)[C@@H](N)CCCCN)C(C)C)C(=O)N[C@@H](CO)C(=O)N[C@@H](CO)C(=O)N[C@@H](C)C(=O)N[C@H](C(=O)N[C@H](C(=O)N[C@@H](CC(=O)O)C(=O)N[C@@H](CCCNC(=N)N)C(N)=O)C(C)C)[C@@H](C)O [SEQ ID NO:7]	42
CSCC[C@H](NC(=O)[C@H](CCC(N)=O)NC(=O)[C@H](C)NC(=O)[C@@H](NC(=O)[C@H](CCC(N)=O)NC(=O)[C@H](CC(=O)O)NC(=O)[C@H](Cc1ccc(O)cc1)NC(=O)[C@H](Cc1ccc(O)cc1)NC(=O)[C@H](CCC(=O)O)NC(=O)[C@H](CCCNC(=N)N)NC(=O)[C@H](CC(C)C)NC(=O)[C@@H](N)CCCNC(=N)N)[C@@H](C)O)C(=O)N[C@@H](C)C(=O)N[C@@H](C)C(=O)N[C@@H](CO)C(N)=O [SEQ ID NO:29] (H-RLREYYDQTAQMAAS-NH2)	53
CC(C)C[C@H](NC(=O)[C@H](Cc1ccccc1)NC(=O)[C@H](Cc1ccccc1)NC(=O)CNC(=O)[C@H](C)NC(=O)[C@H](Cc1c[nH]cn1)NC(=O)[C@H](C)NC(=O)[C@@H](NC(=O)[C@H](C)NC(=O)[C@@H](NC(=O)[C@@H](NC(=O)[C@H](CC(N)=O)NC(=O)[C@H](CCC(N)=O)NC(=O)[C@H](CCCCN)NC(=O)[C@H](CCC(=O)O)NC(=O)[C@@H](N)CCC(N)=O)[C@@H](C)O)C(C)C)[C@@H](C)O)C(=O)N[C@@H](CCCNC(=N)N)C(=O)N[C@@H](CCC(=O)O)C(=O)N[C@@H](CC(N)=O)C(=O)N[C@@H](CCC(=O)O)C(N)=O [SEQ ID NO:15, Glutaminyl-glutamyl-lysyl-glutaminyl-asparaginyl-threonyl-valyl-alanyl-threonyl-alanyl-histidyl-alanyl-glycyl-phenylalanyl-phenylalanyl-leucyl-arginyl-glutamyl-asparaginyl-glutamic Acid Amide] (H-QEKQNTVATAHAGFFLRENE-NH2)	48
CC(C)C[C@H](NC(=O)[C@@H](N)Cc1c[nH]cn1)C(=O)N1CCC[C@H]1C(=O)N[C@@H](CCC(N)=O)C(=O)N1CCC[C@H]1C(=O)N[C@H](C(=O)N[C@@H](CO)C(=O)N[C@H](C(=O)N[C@@H](CCCNC(=N)N)C(=O)N[C@@H](CO)C(=O)N[C@@H](CCC(N)=O)C(=O)N[C@@H](Cc1c[nH]cn1)C(=O)N[C@H](C(=O)N[C@@H](CCC(N)=O)C(=O)N1CCC[C@H]1C(N)=O)[C@@H](C)O)[C@@H](C)O)C(C)C [SEQ ID NO:56] (H-HLPQPVSTRSQHTQP-NH2)	67
CSCC[C@H](NC(=O)[C@H](CCC(N)=O)NC(=O)[C@H](C)NC(=O)[C@@H](NC(=O)[C@H](CCC(N)=O)NC(=O)[C@H](CC(=O)O)NC(=O)[C@H](Cc1ccc(O)cc1)NC(=O)[C@H](Cc1ccc(O)cc1)NC(=O)[C@H](CCC(=O)O)NC(=O)[C@H](CCCNC(=N)N)NC(=O)[C@H](CC(C)C)NC(=O)[C@H](CCCNC(=N)N)NC(=O)[C@H](C)NC(=O)[C@@H](NC(=O)[C@@H](N)CO)[C@@H](C)O)[C@@H](C)O)C(N)=O [SEQ ID NO:28] (H-STARLREYYDQTAQM-NH2)	72
